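Step 1: Grow cells in 96-well plates. Step 2: Expose to compound for 48 hours at 5 concentrations. Step 3: Interpolate endpoints linearly; if unreached, use highest concentration. The concentration for full growth arrest is given as TGI.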
Columns and labels:
Assay in all cases: inhibition of tumour cell growth, NCI panel, 48 h
[1] = system: KM12 colon
[2] = system: UO-31 renal
[3] = system: U251 CNS
[4] = system: LOX IMVI melanoma
[5] = system: MDA-MB-435
[6] = system: M14 melanoma
[7] = system: HCT-15 colon
[8] = system: IGROV1 ovarian
[9] = system: SK-OV-3 ovarian
[10] = system: UACC-257 melanoma
[11] = system: A549 NSCLC
[12] = system: NCI/ADR-RES ovarian
[13] = system: COLO 205 colon
[14] = system: SK-MEL-2 melanoma
[15] = system: HCC-2998 colon
[16] = system: OVCAR-8 ovarian
[17] = system: HT29 colon
[18] = system: BT-549 breast
[19] = system: OVCAR-3 ovarian
[20] = system: MALME-3M melanoma
[21] = system: SF-539 CNS
[22] = system: SK-MEL-28 melanoma
[23] = system: SF-295 CNS
[24] = system: TK-10 renal
[25] = system: HOP-62 NSCLC
[26] = system: HL-60(TB) leukemia
[27] = system: RXF 393 renal
[28] = system: NCI-H522 lung
[29] = system: CAKI-1 renal
[30] = system: MDA-N
[31] = system: SK-MEL-5 melanoma
[32] = system: OVCAR-5 ovarian
[33] = system: A498 renal
[34] = system: 786-0 renal
[35] = system: ACHN renal
[36] = system: EKVX NSCLC
[37] = system: NCI-H226 lung
[38] = system: OVCAR-4 ovarian
[39] = system: NCI-H23 lung
[40] = system: SW-620 colon
[41] = system: RPMI-8226 leukemia
[42] = system: PC-3 prostate
[43] = system: NCI-H460 lung
[44] = system: CCRF-CEM leukemia
[45] = system: MDA-MB-231 breast
[46] = system: SF-268 CNS
[47] = system: SN12C renal
[48] = system: T-47D breast
[49] = system: HCT-116 colon
[50] = system: MCF7 breast
[51] = system: SNB-19 CNS
[52] = system: SNB-75 CNS

Cc1sc2nc(-c3cccc([N+](=O)[O-])c3)c(/C=N/N=C(N)N)n2c1C
TGI [1]: 3.24 µM | TGI [2]: 3.13 µM | TGI [3]: 3.07 µM | TGI [4]: 3.16 µM | TGI [5]: 3.18 µM | TGI [6]: 2.95 µM | TGI [7]: 3.03 µM | TGI [8]: 2.59 µM | TGI [9]: 3.3 µM | TGI [10]: 3.06 µM | TGI [11]: 3.02 µM | TGI [12]: 45.1 µM | TGI [13]: 3.72 µM | TGI [14]: 3.09 µM | TGI [15]: 2.61 µM | TGI [16]: 3.23 µM | TGI [17]: 2.98 µM | TGI [18]: 2.83 µM | TGI [19]: 4.02 µM | TGI [20]: 3.71 µM | TGI [21]: 3.72 µM | TGI [22]: 3.03 µM | TGI [23]: 2.95 µM | TGI [24]: 2.84 µM | TGI [25]: 3.1 µM | TGI [26]: 3.63 µM | TGI [27]: 3.22 µM | TGI [28]: 3.17 µM | TGI [29]: 3.77 µM | TGI [30]: 3.15 µM | TGI [31]: 3.03 µM | TGI [32]: 3.06 µM | TGI [33]: 2.88 µM | TGI [34]: 3.22 µM | TGI [35]: 3.08 µM | TGI [36]: 3.06 µM

CC(C)=C[C@H]1CCC2(OCCO2)[C@]1(C)CO
TGI [1]: > 100 µM | TGI [2]: > 100 µM | TGI [4]: > 100 µM | TGI [37]: > 100 µM | TGI [5]: > 100 µM | TGI [6]: > 100 µM | TGI [38]: > 100 µM | TGI [39]: > 100 µM | TGI [7]: > 100 µM | TGI [40]: > 100 µM | TGI [8]: > 100 µM | TGI [9]: > 100 µM | TGI [10]: > 100 µM | TGI [41]: > 100 µM | TGI [11]: > 100 µM | TGI [42]: > 100 µM | TGI [43]: > 100 µM | TGI [12]: > 100 µM | TGI [13]: > 100 µM | TGI [14]: > 100 µM | TGI [15]: > 100 µM | TGI [16]: > 100 µM | TGI [44]: > 100 µM | TGI [18]: > 100 µM | TGI [45]: > 100 µM | TGI [46]: > 100 µM | TGI [47]: > 100 µM | TGI [48]: > 100 µM | TGI [20]: > 100 µM | TGI [21]: > 100 µM | TGI [22]: > 100 µM | TGI [23]: > 100 µM | TGI [24]: > 100 µM | TGI [49]: > 100 µM | TGI [27]: > 100 µM | TGI [28]: > 100 µM | TGI [29]: > 100 µM | TGI [30]: > 100 µM | TGI [31]: > 100 µM | TGI [50]: > 100 µM | TGI [32]: > 100 µM | TGI [33]: > 100 µM | TGI [34]: > 100 µM | TGI [51]: > 100 µM | TGI [52]: > 100 µM | TGI [35]: > 100 µM | TGI [36]: > 100 µM
